By inhibition is commonly meant the drop in the measured response relative to a control, in per cent.

The source of these data is article PMC8120209, “Longitudinal evaluation of a novel BChE PET tracer as an early in vivo biomarker in the brain of a mouse model for Alzheimer disease” (Theranostics, 2021).

The target in one test is T1, N neuronal α4β2 (h) (Homo sapiens, UniProt P17787+P43681).
T1 construct: gene CHRNB2
Kind of test: biochemical. Further details: Eurofins SafetyScreen44 radioligand displacement, inhibition of control specific binding. The settings on record: read-out: % Inhibition of Control Specific Binding, Mean.

Another test concerns the target T2, D2S(h) (Homo sapiens, UniProt P14416).
T2 construct: gene DRD2; short isoform D2S
Kind of test: biochemical. The arrangement: Eurofins SafetyScreen44 radioligand displacement, inhibition of control specific binding. The settings on record: read-out: % Inhibition of Control Specific Binding, Mean.

A further test concerns the target PDE3A (h) (Homo sapiens, UniProt Q14432). Kind of test: biochemical. The arrangement: Eurofins SafetyScreen44 enzyme assays, inhibition of control specific activity. The settings on record: read-out: % Inhibition of Control Values, Mean.
For another test, the target named is T3, 5-HT1B (h) (Homo sapiens, UniProt P28222).
T3 construct: gene HTR1B
Kind of test: biochemical. Further details: Eurofins SafetyScreen44 radioligand displacement, inhibition of control specific binding. The settings on record: read-out: % Inhibition of Control Specific Binding, Mean.

The target of another test is T4, M3(h) (Homo sapiens, UniProt P20309).
T4 construct: gene CHRM3
Kind of test: biochemical. The settings on record: read-out: % Inhibition of Control Specific Binding, Mean. The arrangement: Eurofins SafetyScreen44 radioligand displacement, inhibition of control specific binding.

Another test concerns the target T5, β1(h) (Homo sapiens, UniProt P08588).
T5 construct: gene ADRB1
The test is described as follows: biochemical. The arrangement: Eurofins SafetyScreen44 radioligand displacement, inhibition of control specific binding. The settings on record: read-out: % Inhibition of Control Specific Binding, Mean.

For the next test, the target named is T6, H2(h) (Homo sapiens, UniProt P25021).
T6 construct: gene HRH2
T6 sequence (P25021 whole entry): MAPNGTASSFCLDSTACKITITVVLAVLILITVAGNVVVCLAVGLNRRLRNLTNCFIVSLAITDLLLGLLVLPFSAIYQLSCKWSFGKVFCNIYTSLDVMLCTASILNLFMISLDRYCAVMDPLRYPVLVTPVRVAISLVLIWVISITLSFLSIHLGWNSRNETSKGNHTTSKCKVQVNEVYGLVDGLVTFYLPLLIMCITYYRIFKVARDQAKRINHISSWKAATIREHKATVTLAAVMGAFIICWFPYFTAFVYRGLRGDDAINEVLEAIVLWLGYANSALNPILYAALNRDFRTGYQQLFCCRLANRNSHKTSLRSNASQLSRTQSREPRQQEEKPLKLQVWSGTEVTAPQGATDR
The test is described as follows: biochemical. The arrangement: Eurofins SafetyScreen44 radioligand displacement, inhibition of control specific binding. The settings on record: read-out: % Inhibition of Control Specific Binding, Mean.

A further test addresses T7, 5-HT2B(h) (Homo sapiens, UniProt P41595).
T7 construct: gene HTR2B
Kind of test: biochemical. The settings on record: read-out: % Inhibition of Control Specific Binding, Mean. The arrangement: Eurofins SafetyScreen44 radioligand displacement, inhibition of control specific binding.

Another test deals with T8, ETA(h) (Homo sapiens, UniProt P25101).
T8 construct: gene EDNRA
The test is described as follows: biochemical. The settings on record: read-out: % Inhibition of Control Specific Binding, Mean. Further details: Eurofins SafetyScreen44 radioligand displacement, inhibition of control specific binding.

A further test concerns the target T9, D2L(h) (Homo sapiens, UniProt P14416).
T9 construct: gene DRD2; long isoform D2L
Kind of test: biochemical. Further details: Eurofins SafetyScreen44 radioligand displacement, inhibition of control specific binding. The settings on record: read-out: % Inhibition of Control Specific Binding, Mean.

For a further test, the target named is T10, CB2(h) (Homo sapiens, UniProt P34972).
T10 construct: gene CNR2
The test is described as follows: biochemical. The arrangement: Eurofins SafetyScreen44 radioligand displacement, inhibition of control specific binding. The settings on record: read-out: % Inhibition of Control Specific Binding, Mean.

In a further test the target is T11, adrenergic receptor α2A (Homo sapiens, UniProt P08913).
T11 construct: gene ADRA2A
Kind of test: SafetyScreen44 panel (Eurofins), single concentration […]. The settings on record: read-out: % inhibition at 10 μM.

In the next test the target is T12, μ (MOP) (h) (Homo sapiens, UniProt P35372).
T12 construct: gene OPRM1
T12 sequence (P35372 whole entry): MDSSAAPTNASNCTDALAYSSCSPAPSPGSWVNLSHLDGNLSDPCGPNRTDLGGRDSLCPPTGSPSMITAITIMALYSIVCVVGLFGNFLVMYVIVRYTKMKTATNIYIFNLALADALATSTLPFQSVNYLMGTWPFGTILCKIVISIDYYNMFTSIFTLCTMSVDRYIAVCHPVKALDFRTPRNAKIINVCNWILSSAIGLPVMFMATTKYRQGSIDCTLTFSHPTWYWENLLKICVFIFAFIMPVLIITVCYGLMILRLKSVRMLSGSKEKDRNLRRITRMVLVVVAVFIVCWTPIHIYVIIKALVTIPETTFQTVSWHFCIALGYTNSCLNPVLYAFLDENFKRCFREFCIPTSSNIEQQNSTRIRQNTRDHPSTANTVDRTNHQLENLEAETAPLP
The test is described as follows: biochemical. The arrangement: Eurofins SafetyScreen44 radioligand displacement, inhibition of control specific binding. The settings on record: read-out: % Inhibition of Control Specific Binding, Mean.

The next test deals with T13, 5-HT2A(h) (Homo sapiens, UniProt P28223).
T13 construct: gene HTR2A
The test is described as follows: biochemical. The settings on record: read-out: % Inhibition of Control Specific Binding, Mean. Further details: Eurofins SafetyScreen44 radioligand displacement, inhibition of control specific binding.

The target in the next test is T14, H1(h) (Homo sapiens, UniProt P35367).
T14 construct: gene HRH1
T14 sequence (P35367 whole entry): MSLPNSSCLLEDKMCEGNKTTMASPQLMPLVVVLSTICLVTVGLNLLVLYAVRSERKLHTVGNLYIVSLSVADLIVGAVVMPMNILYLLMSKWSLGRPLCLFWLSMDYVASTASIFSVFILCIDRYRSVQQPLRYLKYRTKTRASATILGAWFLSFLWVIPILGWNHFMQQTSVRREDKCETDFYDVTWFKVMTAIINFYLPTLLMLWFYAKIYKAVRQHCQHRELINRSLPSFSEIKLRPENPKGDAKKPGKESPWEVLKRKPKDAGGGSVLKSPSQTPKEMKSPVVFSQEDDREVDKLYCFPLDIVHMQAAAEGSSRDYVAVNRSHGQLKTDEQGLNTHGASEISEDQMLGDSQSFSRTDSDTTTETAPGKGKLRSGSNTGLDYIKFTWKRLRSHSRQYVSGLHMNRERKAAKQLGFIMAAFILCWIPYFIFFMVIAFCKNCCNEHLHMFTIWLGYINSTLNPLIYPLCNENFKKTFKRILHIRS
The test is described as follows: biochemical. The arrangement: Eurofins SafetyScreen44 radioligand displacement, inhibition of control specific binding. The settings on record: read-out: % Inhibition of Control Specific Binding, Mean.

A further test has as its target T15, M5(h) (Homo sapiens, UniProt P08912).
T15 construct: gene CHRM5
Kind of test: biochemical. The settings on record: read-out: % Inhibition of Control Specific Binding, Mean. Further details: Eurofins SafetyScreen44 radioligand displacement, inhibition of control specific binding.

A further test addresses T16, sigma 1 (h) (Homo sapiens, UniProt Q99720).
T16 construct: gene SIGMAR1
The test is described as follows: biochemical. Further details: Eurofins SafetyScreen44 radioligand displacement, inhibition of control specific binding. The settings on record: read-out: % Inhibition of Control Specific Binding, Mean.

The target in the next test is T17, CCK1 (CCKA) (h) (Homo sapiens, UniProt P32238).
T17 construct: gene CCKAR
T17 sequence (P32238 whole entry): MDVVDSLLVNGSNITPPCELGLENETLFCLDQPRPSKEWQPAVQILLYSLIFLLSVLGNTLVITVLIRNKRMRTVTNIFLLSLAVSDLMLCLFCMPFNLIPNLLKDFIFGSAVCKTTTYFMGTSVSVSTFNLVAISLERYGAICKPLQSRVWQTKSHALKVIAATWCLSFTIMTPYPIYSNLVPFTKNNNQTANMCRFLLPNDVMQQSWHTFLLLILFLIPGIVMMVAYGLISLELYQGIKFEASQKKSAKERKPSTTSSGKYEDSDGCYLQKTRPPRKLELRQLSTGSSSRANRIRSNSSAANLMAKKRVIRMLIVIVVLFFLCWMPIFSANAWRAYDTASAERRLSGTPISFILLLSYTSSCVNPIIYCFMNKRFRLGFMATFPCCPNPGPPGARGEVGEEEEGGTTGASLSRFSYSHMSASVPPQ
Kind of test: biochemical. Further details: Eurofins SafetyScreen44 radioligand displacement, inhibition of control specific binding. The settings on record: read-out: % Inhibition of Control Specific Binding, Mean.

In the next test the target is T18, acetylcholinesterase (h) (Homo sapiens, UniProt P22303).
T18 construct: gene ACHE
T18 sequence (P22303 whole entry): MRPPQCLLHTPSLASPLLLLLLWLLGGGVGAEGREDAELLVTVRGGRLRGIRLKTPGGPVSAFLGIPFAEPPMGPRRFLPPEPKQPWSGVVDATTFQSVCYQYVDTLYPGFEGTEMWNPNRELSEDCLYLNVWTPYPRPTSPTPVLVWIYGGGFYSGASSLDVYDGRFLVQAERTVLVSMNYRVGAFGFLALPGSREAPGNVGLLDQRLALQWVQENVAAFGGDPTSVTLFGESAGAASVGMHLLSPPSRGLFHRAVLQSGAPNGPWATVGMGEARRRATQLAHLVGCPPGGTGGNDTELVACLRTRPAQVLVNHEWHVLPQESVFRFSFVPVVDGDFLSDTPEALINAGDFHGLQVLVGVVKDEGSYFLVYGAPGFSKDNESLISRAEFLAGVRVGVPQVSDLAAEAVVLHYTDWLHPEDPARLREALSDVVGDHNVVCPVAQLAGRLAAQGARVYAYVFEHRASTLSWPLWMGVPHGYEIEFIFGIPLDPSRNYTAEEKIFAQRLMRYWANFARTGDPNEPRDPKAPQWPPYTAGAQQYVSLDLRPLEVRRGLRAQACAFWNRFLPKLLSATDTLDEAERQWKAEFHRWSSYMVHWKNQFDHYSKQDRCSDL
The test is described as follows: biochemical. The arrangement: Eurofins SafetyScreen44 enzyme assays, inhibition of control specific activity. The settings on record: read-out: % Inhibition of Control Values, Mean.

The next test deals with T19, D5(h) (Homo sapiens, UniProt P21918).
T19 construct: gene DRD5
T19 sequence (P21918 whole entry): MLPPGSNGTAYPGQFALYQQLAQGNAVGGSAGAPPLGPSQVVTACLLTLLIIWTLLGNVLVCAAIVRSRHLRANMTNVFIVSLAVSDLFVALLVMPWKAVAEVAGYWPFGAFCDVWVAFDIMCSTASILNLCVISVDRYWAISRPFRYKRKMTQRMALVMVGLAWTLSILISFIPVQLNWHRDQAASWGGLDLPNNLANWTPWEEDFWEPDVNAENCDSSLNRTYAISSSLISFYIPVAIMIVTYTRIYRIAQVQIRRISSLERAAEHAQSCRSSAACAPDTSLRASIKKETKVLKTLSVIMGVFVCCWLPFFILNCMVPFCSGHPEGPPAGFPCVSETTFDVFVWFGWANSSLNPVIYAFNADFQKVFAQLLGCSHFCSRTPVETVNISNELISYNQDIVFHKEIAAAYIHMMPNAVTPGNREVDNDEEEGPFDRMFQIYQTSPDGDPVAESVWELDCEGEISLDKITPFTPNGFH
Kind of test: biochemical. The settings on record: read-out: % Inhibition of Control Specific Binding, Mean. The arrangement: Eurofins SafetyScreen44 radioligand displacement, inhibition of control specific binding.

For the next test, the target named is T20, adrenergic receptor α1A (Homo sapiens, UniProt P35348).
T20 construct: gene ADRA1A
T20 sequence (P35348 1-466): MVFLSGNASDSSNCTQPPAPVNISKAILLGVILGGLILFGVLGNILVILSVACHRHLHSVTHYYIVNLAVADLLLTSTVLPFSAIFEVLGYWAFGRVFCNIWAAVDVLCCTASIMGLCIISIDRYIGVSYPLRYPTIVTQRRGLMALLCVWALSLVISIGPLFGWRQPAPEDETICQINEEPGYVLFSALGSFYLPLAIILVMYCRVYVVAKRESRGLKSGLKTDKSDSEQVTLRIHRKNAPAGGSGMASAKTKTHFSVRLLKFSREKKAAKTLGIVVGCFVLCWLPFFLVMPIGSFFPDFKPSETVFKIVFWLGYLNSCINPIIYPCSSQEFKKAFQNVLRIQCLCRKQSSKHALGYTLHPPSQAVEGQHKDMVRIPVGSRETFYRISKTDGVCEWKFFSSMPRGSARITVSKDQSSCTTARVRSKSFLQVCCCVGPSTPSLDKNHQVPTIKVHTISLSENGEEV
Kind of test: SafetyScreen44 panel (Eurofins), single concentration […]. The settings on record: read-out: % inhibition at 10 μM.

The next test deals with T21, 5-HT1A(h) (Homo sapiens, UniProt P08908).
T21 construct: gene HTR1A
T21 sequence (P08908 whole entry): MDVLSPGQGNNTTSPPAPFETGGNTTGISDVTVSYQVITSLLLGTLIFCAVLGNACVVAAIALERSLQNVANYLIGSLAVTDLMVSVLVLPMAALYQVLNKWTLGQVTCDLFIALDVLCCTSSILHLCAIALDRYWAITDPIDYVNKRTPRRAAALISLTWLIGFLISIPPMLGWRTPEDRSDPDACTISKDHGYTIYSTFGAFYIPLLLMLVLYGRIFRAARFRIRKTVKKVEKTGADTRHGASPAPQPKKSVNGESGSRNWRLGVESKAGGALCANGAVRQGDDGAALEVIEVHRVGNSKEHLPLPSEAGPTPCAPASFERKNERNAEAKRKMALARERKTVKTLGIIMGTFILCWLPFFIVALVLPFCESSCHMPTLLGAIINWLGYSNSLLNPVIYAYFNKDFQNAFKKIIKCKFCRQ
The test is described as follows: biochemical. Further details: Eurofins SafetyScreen44 radioligand displacement, inhibition of control specific binding. The settings on record: read-out: % Inhibition of Control Specific Binding, Mean.

Another test deals with T22, M1(h) (Homo sapiens, UniProt P11229).
T22 construct: gene CHRM1
The test is described as follows: biochemical. The arrangement: Eurofins SafetyScreen44 radioligand displacement, inhibition of control specific binding. The settings on record: read-out: % Inhibition of Control Specific Binding, Mean.

T15 sequence (P08912 whole entry): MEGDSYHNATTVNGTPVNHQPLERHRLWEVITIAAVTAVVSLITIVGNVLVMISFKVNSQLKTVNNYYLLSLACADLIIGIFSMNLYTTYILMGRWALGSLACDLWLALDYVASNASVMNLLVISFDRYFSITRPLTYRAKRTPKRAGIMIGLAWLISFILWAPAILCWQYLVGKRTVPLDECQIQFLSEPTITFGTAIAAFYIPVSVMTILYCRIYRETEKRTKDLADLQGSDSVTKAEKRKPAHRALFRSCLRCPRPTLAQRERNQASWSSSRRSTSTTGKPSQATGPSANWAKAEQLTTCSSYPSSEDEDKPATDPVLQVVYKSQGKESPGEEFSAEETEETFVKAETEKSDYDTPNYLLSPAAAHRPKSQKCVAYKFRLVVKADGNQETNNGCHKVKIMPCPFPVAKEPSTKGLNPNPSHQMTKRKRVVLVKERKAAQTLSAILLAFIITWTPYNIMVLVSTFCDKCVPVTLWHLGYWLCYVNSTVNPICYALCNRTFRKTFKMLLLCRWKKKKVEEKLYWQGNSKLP
T1 sequence (P17787 whole entry): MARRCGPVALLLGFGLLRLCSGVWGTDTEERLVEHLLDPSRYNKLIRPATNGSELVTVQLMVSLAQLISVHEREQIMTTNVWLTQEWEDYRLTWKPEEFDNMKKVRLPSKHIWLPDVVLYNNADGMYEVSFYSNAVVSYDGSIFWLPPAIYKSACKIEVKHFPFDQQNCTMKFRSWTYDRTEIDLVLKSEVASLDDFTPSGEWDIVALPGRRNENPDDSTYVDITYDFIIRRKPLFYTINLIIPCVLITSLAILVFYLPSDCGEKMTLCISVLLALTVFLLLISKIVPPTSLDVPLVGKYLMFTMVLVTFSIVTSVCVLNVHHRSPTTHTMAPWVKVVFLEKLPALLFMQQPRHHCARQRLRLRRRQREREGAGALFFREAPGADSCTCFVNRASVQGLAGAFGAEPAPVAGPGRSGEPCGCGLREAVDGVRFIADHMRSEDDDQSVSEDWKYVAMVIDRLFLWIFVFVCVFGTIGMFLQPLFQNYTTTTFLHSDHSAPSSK
T1 sequence (P43681 whole entry): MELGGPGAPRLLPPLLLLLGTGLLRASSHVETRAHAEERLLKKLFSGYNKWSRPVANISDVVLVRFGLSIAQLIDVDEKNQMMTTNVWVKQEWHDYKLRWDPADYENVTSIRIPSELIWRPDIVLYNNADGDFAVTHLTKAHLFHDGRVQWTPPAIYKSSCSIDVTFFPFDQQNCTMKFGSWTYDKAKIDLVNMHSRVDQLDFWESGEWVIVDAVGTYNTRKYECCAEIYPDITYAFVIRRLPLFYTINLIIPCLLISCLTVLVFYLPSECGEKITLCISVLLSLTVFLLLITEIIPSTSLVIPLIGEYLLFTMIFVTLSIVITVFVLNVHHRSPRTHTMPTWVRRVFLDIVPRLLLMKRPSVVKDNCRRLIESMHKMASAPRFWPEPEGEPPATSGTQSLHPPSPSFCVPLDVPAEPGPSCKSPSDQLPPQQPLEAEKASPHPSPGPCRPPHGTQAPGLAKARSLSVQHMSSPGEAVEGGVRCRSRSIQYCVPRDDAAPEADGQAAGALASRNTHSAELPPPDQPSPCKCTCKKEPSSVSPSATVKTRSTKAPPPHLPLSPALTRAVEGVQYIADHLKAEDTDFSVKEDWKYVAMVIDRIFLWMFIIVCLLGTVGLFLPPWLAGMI

In the case of `COCCN(CC1CCCN(Cc2ccccc2)C1)S(=O)(=O)c1ccc2ccccc2c1` (racemic) [compound 4, (±)N-((1-benzylpiperidin-3-yl)methyl)-N-(2-methoxyethyl)naphthalene-2-sulfonamide], the inhibition at 10 µM on N neuronal α4β2 (h) is -17.7%; at D2S(h), 55.6%; at PDE3A (h) it was 7%; at 5-HT1B (h), 45%; on M3(h) it was 35.2%; on β1(h), 4.5%. Besides, the inhibition at 10 µM on H2(h) is 27%; on 5-HT2B(h), 88.4%; at ETA(h), -3.9%; on D2L(h), 26.6%; on CB2(h) it was 17.6%; at adrenergic receptor α2A it was 60.9%. Moreover, the inhibition at 10 µM was found to be 82.7% on μ (MOP) (h); 93% at 5-HT2A(h); 29% on H1(h); 17.6% at M5(h); 99.9% at sigma 1 (h); 21.9% at CCK1 (CCKA) (h). Moreover, the inhibition at 10 µM was 12.3% at acetylcholinesterase (h); 24.2% at D5(h); 71.7% on adrenergic receptor α1A; 96.2% at 5-HT1A(h); 53.1% on M1(h).
